# Measured values taken from patent US20150274735A1, “USE OF A TETRASUBSTITUTED PYRAZOLO[4, 3-D]PYRIMIDINE COMPOUND FOR TREATING DIABETIC NEPHROPATHY” (priority 2012, published 2015).
# “Also recorded” adds a separate entry of the source.
# Columns and labels:
# clinical = settings: male, human, in vivo
# Experimental: (§1) Both single and multiple dose clinical studies were conducted with an oral solution or suspension ranging from single doses of 0.3 to 400 mg and multiple doses of 30 to 200 mg.
# (§2) For toxicokinetic studies, this method was validated over a concentration range of 10 to 1000 ng/mL for a 50 μL plasma sample. Radiometric methods were used to measure [^14C]
# [1] = tested on: Type II diabetic male patients; assay: Microalbuminuria in Type II diabetic patients (FIG. 1); format: in vivo, human; settings: 50 mg daily for 30 days (n=20), relative to baseline or placebo
# [2] = tested on: spontaneously hypertensive rats (SHR); assay: Antihypertensive efficacy in conscious SHR, oral dosing, radiotelemetry; format: in vivo, rat; settings: for Effect on mean arterial pressure (MAP): 14-day dosing period
# [3] = Single-dose toxicity/toxicokinetic study of polymorph forms in rats; format: in vivo; settings: equivalent doses 100 and 300 mg/kg
# [4] = Single-dose toxicity/toxicokinetic study of polymorph forms in dogs; format: in vivo; settings: equivalent dose 100 mg/kg
# CYP1A2 = CYP1A2 (Homo sapiens, UniProt P05177); assay: CYP inhibition in human liver microsomes; format: in vitro ADME
# [5] = tested on: Human Peripheral Lymphocytes; assay: In vitro cytogenetic assay, structural chromosome aberration; format: cell-based; settings: 100, 350, 500 μg/mL (3 h − S9); 100, 200, 350 μg/mL (3 h + S9); 12.5, 50, 100 μg/mL (24 h − S9)
# Experimental: (§3) Study designs and dose selection were consistent with International Conference on Harmonization and Organization for Economic Cooperation and Development guidelines for mutagenicity and clastogenicity assays. All in vitro tests were conducted with and without exogenous metabolic activation using concentrations up to those limited by cytotoxicity or insolubility.
# [6] = Tissue distribution study in rats, radio labeled compound; format: in vivo, rat; settings: radio labeled Example 1
# rats [7] = assay: Renal - rat, fluid and electrolyte excretion; format: in vivo; settings: oral, 3, 30, 300 mg/kg
# From the text: (§5) For in vivo studies, the oral route of exposure was used. Rats given diazepam or frusemide served as positive controls in the locomotor activity and fluid/electrolyte excretion studies, respectively. […] Positive controls or animals given positive controls were not assessed concurrently in the remaining studies as these studies utilized well-characterized models to evaluate safety parameters.
# rat PDE5 = biological target: T1, rat PDE5 (Rattus norvegicus, UniProt O54735); assay: PDE5 enzyme (rat platelet) inhibition; format: biochemical; settings: rat platelet-derived enzyme
# T1 construct: rat and dog platelet-derived PDE5; from tissue; host or cells: rat platelets
# CYP2C9 = biological target: T2, CYP2C9 (Homo sapiens, UniProt P11712); assay: CYP inhibition in human liver microsomes; format: in vitro ADME
# T2 construct: was determined in human liver microsomes; from tissue; host or cells: human liver microsomes
# [8] = biological target: T3, PDE6 enzyme (human retinal rod) (Homo sapiens, UniProt P16499+P35913); assay: PDE6 enzyme (human retinal rod) inhibition; format: biochemical
# T3 construct: against human retinal cone and rod; from tissue; host or cells: human retina (rod)
# [9] = biological target: PDE6 enzyme (human retinal cone) (Homo sapiens, UniProt P51160); assay: PDE6 enzyme (human retinal cone) inhibition; format: biochemical
# CYP2D6 = biological target: T4, CYP2D6 (Homo sapiens, UniProt P10635); assay: CYP inhibition in human liver microsomes; format: in vitro ADME
# T4 construct: was determined in human liver microsomes; from tissue; host or cells: human liver microsomes
# human PDE11 = human PDE11 (Homo sapiens, UniProt Q9HCR9); assay: PDE11 enzyme (human) inhibition; format: biochemical
# in vitro [10] = settings: rabbit, plasma
# rats [11] = settings: rat, in vivo
# [12] = Excretion of total radioactivity in dogs; format: in vivo, dog
# Experimental: as §2
# [13] = biological target: T5, dog platelet-derived PDE5 (Canis lupus familiaris, UniProt O77746); assay: PDE5 enzyme (dog platelet) inhibition; format: biochemical
# T5 construct: rat and dog platelet-derived PDE5; from tissue; host or cells: dog platelets
# rats [14] = assay: Central nervous system - rat, locomotor activity; format: in vivo; settings: oral, up to 300 mg/kg
# From the text: as §5
# mice = settings: mouse, in vivo, 14 days
# in vitro [15] = settings: rat, plasma
# Rat Bone Marrow = assay: Micronucleus assay in rat bone marrow; format: in vivo; settings: 100, 300, 600 mg/kg/day
# Experimental: as §3
# [16] = tested on: isolated rat aortic rings; assay: Aortic ring relaxation (rat); settings: read-out: Aortic ring vasorelaxation EC50
# [17] = Excretion of total radioactivity in rats; format: in vivo, rat
# Experimental: as §2
# CYP3A4 = CYP3A4 (Homo sapiens, UniProt P08684); assay: CYP inhibition in human liver microsomes; format: in vitro ADME; settings: probe midazolam, testosterone and felodipine
# Pharmacokinetics in rats = format: in vivo, rat
# Experimental: as §2
# rats [18] = assay: Pulmonary function - rat, respiratory parameters; format: in vivo; settings: oral, up to 300 mg/kg
# From the text: as §5
# CYP2C19 = biological target: T6, CYP2C19 (Homo sapiens, UniProt P33261); assay: CYP inhibition in human liver microsomes; format: in vitro ADME
# T6 construct: was determined in human liver microsomes; from tissue; host or cells: human liver microsomes
# [19] = tested on: major human cytochrome P450 enzymes; assay: Inhibition of the major human cytochrome P450 enzymes; format: in vitro ADME
# healthy male volunteers = assay: Human tolerability and safety, single and multiple dose clinical studies
# Experimental: as §1
# in vitro [20] = settings: human, plasma
# in vitro [21] = settings: dog, plasma
# Pharmacokinetics in dogs = format: in vivo, dog
# Experimental: as §2
# [22] = tested on: Salmonella typhimurium (Strains TA-1535, TA-1537) and Escherichia coli (Strain WP2uvrA); assay: Microbial reverse mutation (mutagenicity); format: cell-based; design: dose or concentration left out as unconfirmed; settings: (±S9)
# Experimental: as §3
# dog Purkinje fiber = assay: Dog Purkinje fiber assay; settings: up to 10 μM (4.77 μg/mL)
# From the text: (§4) For in vivo studies, the oral route of exposure was used. Rats given diazepam or frusemide served as positive controls in the locomotor activity and fluid/electrolyte excretion studies, respectively. Dofetilide was used for assay validity or a positive control in the dofetilide and hERG assays, respectively. Positive controls or animals given positive controls were not assessed concurrently in the remaining studies as these studies utilized well-characterized models to evaluate safety parameters.
# dogs = assay: Cardiovascular - conscious dogs, hemodynamic and ECG parameters; format: in vivo, dog
# From the text: as §4
# These cardiovascular effects are consistent with cGMP elevation in vascular smooth muscle, resulting from inhibition of cGMP-specific PDE5.
# T4 sequence (P10635 whole entry): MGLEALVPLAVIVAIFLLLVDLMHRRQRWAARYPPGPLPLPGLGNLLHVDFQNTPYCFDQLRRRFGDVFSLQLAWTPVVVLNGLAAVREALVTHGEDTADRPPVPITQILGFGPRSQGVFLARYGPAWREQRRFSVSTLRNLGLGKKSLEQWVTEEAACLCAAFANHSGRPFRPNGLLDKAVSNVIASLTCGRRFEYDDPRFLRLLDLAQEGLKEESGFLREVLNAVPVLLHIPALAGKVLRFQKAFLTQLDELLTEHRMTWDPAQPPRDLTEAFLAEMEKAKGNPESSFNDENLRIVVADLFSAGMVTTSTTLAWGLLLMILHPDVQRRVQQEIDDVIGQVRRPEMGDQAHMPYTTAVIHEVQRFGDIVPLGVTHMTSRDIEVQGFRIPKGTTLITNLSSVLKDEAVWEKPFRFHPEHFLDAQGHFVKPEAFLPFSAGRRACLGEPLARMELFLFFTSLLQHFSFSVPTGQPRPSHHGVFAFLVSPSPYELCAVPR
# T6 sequence (P33261 whole entry): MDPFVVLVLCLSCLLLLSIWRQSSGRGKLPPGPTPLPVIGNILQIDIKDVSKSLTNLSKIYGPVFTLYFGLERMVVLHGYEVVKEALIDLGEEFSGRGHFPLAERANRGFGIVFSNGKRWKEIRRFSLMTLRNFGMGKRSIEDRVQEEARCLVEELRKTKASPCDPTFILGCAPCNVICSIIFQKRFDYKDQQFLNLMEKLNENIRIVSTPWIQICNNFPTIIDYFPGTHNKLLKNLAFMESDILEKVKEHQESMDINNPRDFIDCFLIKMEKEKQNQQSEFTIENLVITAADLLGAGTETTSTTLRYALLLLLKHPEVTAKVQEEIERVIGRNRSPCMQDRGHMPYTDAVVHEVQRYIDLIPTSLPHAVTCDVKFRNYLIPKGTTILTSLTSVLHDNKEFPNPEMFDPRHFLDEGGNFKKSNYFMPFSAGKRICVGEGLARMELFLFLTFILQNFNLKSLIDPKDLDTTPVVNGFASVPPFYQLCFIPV
# Sequence of CYP1A2 (P05177 whole entry): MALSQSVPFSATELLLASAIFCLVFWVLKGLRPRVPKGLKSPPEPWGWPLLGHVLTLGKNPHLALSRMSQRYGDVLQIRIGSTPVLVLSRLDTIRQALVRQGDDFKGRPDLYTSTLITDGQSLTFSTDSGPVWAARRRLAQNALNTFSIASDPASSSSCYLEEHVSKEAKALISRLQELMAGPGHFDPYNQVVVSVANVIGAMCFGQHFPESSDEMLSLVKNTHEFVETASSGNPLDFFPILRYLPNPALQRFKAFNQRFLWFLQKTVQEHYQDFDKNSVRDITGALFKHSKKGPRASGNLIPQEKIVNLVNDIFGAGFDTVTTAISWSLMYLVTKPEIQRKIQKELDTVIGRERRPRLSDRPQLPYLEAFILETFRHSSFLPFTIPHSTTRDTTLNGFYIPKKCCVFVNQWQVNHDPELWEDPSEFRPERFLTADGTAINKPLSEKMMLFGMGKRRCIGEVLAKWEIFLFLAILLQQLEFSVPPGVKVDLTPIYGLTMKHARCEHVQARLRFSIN
# T2 sequence (P11712 whole entry): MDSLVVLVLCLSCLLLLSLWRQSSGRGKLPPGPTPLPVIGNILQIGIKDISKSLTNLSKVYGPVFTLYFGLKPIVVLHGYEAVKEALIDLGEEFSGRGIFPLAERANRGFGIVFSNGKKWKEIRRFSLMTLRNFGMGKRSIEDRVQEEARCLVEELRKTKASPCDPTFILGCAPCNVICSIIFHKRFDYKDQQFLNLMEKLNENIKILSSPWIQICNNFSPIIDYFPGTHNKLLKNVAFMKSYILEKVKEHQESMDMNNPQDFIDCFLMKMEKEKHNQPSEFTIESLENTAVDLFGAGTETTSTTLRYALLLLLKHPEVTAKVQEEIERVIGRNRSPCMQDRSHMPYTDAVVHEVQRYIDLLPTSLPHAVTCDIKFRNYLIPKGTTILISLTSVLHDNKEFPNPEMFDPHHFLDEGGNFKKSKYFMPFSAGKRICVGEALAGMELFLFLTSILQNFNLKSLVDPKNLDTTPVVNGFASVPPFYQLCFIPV
# T3 sequence (P16499 2-857 limits assumed): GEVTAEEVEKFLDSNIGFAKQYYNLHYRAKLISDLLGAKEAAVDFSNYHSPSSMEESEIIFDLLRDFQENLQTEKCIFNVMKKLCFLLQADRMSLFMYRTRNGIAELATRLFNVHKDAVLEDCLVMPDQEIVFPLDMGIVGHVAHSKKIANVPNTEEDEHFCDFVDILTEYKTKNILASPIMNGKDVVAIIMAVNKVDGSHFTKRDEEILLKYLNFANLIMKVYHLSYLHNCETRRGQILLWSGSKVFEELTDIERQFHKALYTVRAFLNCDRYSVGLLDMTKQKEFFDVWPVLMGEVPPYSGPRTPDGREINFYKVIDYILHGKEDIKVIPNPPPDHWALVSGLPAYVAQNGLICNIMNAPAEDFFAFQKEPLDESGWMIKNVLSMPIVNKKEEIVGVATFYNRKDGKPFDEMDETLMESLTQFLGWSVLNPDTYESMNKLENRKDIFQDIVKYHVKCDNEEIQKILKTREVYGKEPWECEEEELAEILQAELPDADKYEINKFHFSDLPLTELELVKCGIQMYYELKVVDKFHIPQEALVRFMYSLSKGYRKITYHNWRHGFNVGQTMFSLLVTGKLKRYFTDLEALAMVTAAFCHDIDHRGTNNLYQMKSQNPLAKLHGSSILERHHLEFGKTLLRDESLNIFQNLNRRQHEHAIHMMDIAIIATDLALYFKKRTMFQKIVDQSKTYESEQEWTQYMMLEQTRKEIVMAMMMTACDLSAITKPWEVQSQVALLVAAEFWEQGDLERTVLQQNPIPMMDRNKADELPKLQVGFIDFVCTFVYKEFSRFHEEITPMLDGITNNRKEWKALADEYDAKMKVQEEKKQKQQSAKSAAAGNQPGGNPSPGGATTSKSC
# T3 sequence (P35913 2-851 limits assumed): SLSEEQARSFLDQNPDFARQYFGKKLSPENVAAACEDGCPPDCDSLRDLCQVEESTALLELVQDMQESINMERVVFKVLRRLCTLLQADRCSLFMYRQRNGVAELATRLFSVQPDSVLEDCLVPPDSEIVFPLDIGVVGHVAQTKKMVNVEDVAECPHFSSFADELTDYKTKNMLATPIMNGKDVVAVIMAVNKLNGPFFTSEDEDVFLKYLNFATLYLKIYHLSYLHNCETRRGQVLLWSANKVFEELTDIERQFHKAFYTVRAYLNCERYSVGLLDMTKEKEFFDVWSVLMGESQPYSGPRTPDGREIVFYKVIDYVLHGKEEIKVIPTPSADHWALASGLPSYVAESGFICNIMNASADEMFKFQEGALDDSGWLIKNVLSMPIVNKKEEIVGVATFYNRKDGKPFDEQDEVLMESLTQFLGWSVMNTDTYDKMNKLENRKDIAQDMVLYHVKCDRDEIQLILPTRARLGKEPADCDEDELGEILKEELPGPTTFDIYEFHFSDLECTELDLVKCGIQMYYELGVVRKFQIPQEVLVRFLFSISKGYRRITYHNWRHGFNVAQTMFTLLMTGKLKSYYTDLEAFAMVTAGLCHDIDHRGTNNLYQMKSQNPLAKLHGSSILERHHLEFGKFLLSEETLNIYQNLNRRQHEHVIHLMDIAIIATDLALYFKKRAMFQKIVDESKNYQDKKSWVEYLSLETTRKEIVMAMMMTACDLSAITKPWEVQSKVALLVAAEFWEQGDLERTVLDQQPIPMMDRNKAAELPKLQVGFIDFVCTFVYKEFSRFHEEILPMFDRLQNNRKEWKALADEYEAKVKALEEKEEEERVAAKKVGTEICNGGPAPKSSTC
# Sequence of human PDE11 (Q9HCR9 whole entry): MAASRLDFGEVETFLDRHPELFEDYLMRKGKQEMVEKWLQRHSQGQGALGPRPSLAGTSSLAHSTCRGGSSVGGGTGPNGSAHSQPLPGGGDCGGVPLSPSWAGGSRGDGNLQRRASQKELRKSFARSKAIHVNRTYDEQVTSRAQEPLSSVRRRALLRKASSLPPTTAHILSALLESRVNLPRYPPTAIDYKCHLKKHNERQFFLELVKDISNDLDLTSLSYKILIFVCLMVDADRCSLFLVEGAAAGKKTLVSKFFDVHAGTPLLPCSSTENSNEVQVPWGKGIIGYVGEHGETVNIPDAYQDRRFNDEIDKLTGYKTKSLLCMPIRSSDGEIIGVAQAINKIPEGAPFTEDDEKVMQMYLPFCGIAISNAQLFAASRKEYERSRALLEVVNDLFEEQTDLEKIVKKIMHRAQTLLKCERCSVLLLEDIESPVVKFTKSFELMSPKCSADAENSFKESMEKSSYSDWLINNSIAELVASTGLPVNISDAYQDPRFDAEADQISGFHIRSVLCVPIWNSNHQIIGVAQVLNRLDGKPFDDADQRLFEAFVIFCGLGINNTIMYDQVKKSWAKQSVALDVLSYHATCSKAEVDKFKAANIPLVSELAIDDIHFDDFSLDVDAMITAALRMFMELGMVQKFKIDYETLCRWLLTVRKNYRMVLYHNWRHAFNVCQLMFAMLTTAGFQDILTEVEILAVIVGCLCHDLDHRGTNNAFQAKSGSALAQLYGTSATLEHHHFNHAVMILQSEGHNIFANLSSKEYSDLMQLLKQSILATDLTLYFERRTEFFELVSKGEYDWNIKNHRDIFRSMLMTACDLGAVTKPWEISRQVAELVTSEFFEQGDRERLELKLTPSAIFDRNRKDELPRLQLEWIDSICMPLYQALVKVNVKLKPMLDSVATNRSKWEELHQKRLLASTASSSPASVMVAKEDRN
smiles,measurement,setting,value
"CCCc1nn(C)c2c(=O)[nH]c(-c3cc(S(=O)(=O)N4CCN(C)CC4)ccc3OCC)nc12 [Sildenafil, sildenafil]",half-life,clinical; Human Half-life,3.7 h
same,Microalbuminuria / albuminuria,[1],reduces albuminuria
same,Microalbuminuria / albuminuria,[1]; listed as sildenafil citrate,significantly decreased
"CCOC(=O)[C@H](CCc1ccccc1)N[C@@H](C)C(=O)N1CCC[C@H]1C(=O)O [enalapril, reference compound]",Effect on mean arterial pressure (MAP),[2],"significant, sustained reduction in MAP"
"CCOCCn1nc(C(=O)NS(C)(=O)=O)c2nc(N(C)CC)nc(Nc3cc(C)ccn3)c21 [Example 1 (polymorph form C), 1-(2-ethoxyethyl)-5-(ethyl(methyl)amino)-7-((4-methylpyridin-2-yl)amino)-N-(methylsulfonyl)-1H-pyrazolo[4,3-d]pyrimidine-3-carboxamide]","Systemic exposure, polymorph form C versus form B",[3],no differences in systemic exposure
same,"Systemic exposure, polymorph form C versus form B",[4],no differences in systemic exposure
"CCOCCn1nc(C(=O)NS(C)(=O)=O)c2nc(N(C)CC)nc(Nc3cc(C)ccn3)c21 [Example 1, 1-(2-ethoxyethyl)-5-(ethyl(methyl)amino)-7-((4-methylpyridin-2-yl)amino)-N-(methylsulfonyl)-1H-pyrazolo[4,3-d]pyrimidine-3-carboxamide]",IC50,CYP1A2,> 30000 nM
same,"Clastogenicity in vitro, structural chromosome aberration result",[5],Negative
same,Tissue distribution,[6],systemic distribution was generally in proportion to tissue-blood flow
same,Effect on urine volume and electrolyte excretion,rats [7],dose-related decrease
same,IC50,rat PDE5,0.93 nM
same,IC50,CYP2C9,> 30000 nM
same,IC50,[8],63.6 nM
same,IC50,[9],28.9 nM
same,IC50,CYP2D6,> 30000 nM
same,IC50,human PDE11,26.3 nM
same,fraction unbound,in vitro [10],0.012
same,Effect on mean arterial pressure (MAP),[2],"significant, sustained reduction in MAP"
same,Effect on MAP in combination,[2]; combined with an ACE inhibitor,greater MAP lowering effects than the ACE inhibitor alone
same,"Free plasma concentration giving significant MAP reduction, as multiple of rat PDE5 IC50",[2]; daily oral dosing,approximately 7 fold
same,ECmax (maximally efficacious concentration),"[2]; oral dosing, unbound plasma concentration",ECmax = 6.5 nM
same,Single dose toxicity findings,rats [11],No toxicity was observed
same,Maximum non-lethal dose,rats [11]; 14 days,2000 mg/kg
same,Administered dose (total radioactivity) eliminated in feces,[12],greater than 80%
same,Time within which the majority of the radioactivity was recovered,[12],≤ 48 h
same,Total radioactivity recovered,[12],greater than 92%
same,IC50,[13],0.65 nM
same,Effects on locomotor activity,rats [14],"minor, nondose-related effects consisting of decreased rearing and center rearing"
same,Cmax,clinical; 30 mg,1570 to 1630 ng/mL
same,half-life,clinical; Human Half-life,11.9 to 15.7 h
same,half-life,clinical; Terminal half-life,11.9 to 15.7 h
same,Maximum non-lethal dose,mice,2000 mg/kg
same,fraction unbound,in vitro [15],0.007
same,Micronucleus assay in rat bone marrow result,Rat Bone Marrow,Negative
same,EC50,[16],3.1 nM
same,Administered dose (total radioactivity) eliminated in feces,[17],greater than 80%
same,Time within which the majority of the radioactivity was recovered,[17],≤ 48 h
same,Total radioactivity recovered,[17],greater than 92%
same,IC50,CYP3A4,> 30000 nM
same,Steady-state distribution volume,Pharmacokinetics in rats; rat,lower than total body water
same,bioavailability,"Pharmacokinetics in rats; rat, plasma, po, rats, single dose, read-out: Absolute oral bioavailability",82%
same,Half-life (in words),Pharmacokinetics in rats; rats,long half-life values
same,Oral bioavailability (in words),Pharmacokinetics in rats; rats,high
same,Plasma clearance,"Pharmacokinetics in rats; rats, intravenous administration",low clearance; also recorded: lower that the liver-blood flow
same,Effects on pulmonary function,rats [18],no adverse effects
same,IC50,CYP2C19,> 30000 nM
same,Inhibition of the major human cytochrome P450 enzymes,[19],no significant inhibition
same,"Changes in vital signs, ECGs, laboratory safety test results, or physical examination results","healthy male volunteers; healthy male volunteers, any dose",No significant changes
same,Tolerability of multiple doses,"healthy male volunteers; human, in vivo",well tolerated
same,Tolerability of single doses,"healthy male volunteers; human, in vivo, po",well tolerated
same,Effects on ECG parameters,"healthy male volunteers; humans, single and multiple doses",No clinically-relevant effects
same,fraction unbound,in vitro [20],0.007
same,fraction unbound,in vitro [21],0.007
same,Steady-state distribution volume,Pharmacokinetics in dogs; dog,lower than total body water
same,bioavailability,"Pharmacokinetics in dogs; dog, plasma, po, dogs, single dose, read-out: Absolute oral bioavailability",77%
same,Cmax,"Pharmacokinetics in dogs; dog, plasma, dogs, 5 mg/kg oral",12800 ng/mL
same,Half-life (in words),Pharmacokinetics in dogs; dogs,long half-life values
same,Oral bioavailability (in words),Pharmacokinetics in dogs; dogs,high
same,Dog Cmax as multiple of human Cmax,Pharmacokinetics in dogs; dogs 5 mg/kg versus humans 30 mg dose,~8 times
same,Plasma clearance,"Pharmacokinetics in dogs; dogs, intravenous administration",low clearance; also recorded: lower that the liver-blood flow
same,Mutagenicity result,[22],Negative
same,Effects in dog Purkinje fiber assay,dog Purkinje fiber,No relevant effects
same,Effects on ECG parameters,dogs; dogs,not associated with any relevant effects
same,Effect on blood pressure and left ventricular end-diastolic pressure,"dogs; dogs, 0.5, 1.5, and 5 mg/kg","small, but significant reductions"
